Reference: the supplement of paper PMC11424490

Key:
NCI-H2122 = assay: combination cScore with adagrasib (Bliss gap around IC50) (%PoC); higher = stronger additive effect
Outline: (§1)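 After 24 h in 384-well plates (500 or 800 cells per well), NCI-H2122, NCI-H358 and SW837 cells received concentration matrices and grew for 72 h, except SW837, which grew for 144 h. CellTiter-Glo readings were scaled to vehicle wells and fitted with four-parameter curves. Each score is the averaged Bliss-independence difference (expected minus measured viability) over a region around both monotherapy IC50s, or at top concentrations when no IC50 was reached.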

SW837 = assay: as above
Outline: as §1

Row | SMILES | combination cScore with adagrasib (NCI-H2122) | combination cScore with adagrasib (SW837)
1 | COc1ncc(-c2nc3c(n2C(C)C)[C@H](c2ccc(Cl)cc2)N(c2cc(Cl)cn(C)c2=O)C3=O)c(OC)n1 [HDM-201] + C=C(F)C(=O)N1CCN(c2nc(OC[C@@H]3CCCN3C)nc3c2CCN(c2cccc4cccc(Cl)c24)C3)C[C@@H]1CC#N [adagrasib] | 1.48 | 3.06
2 | CCCCCOC(=O)Nc1nc(=O)n([C@@H]2O[C@H](C)[C@@H](O)[C@H]2O)cc1F [Capecitabin] + C=C(F)C(=O)N1CCN(c2nc(OC[C@@H]3CCCN3C)nc3c2CCN(c2cccc4cccc(Cl)c24)C3)C[C@@H]1CC#N [adagrasib] | -6.31 | 2.14
3 | CC(C)Nc1cc(-c2c[nH]c(C(=O)N[C@H](CO)c3cccc(Cl)c3)c2)c(Cl)cn1 [Ulixertinib] + C=C(F)C(=O)N1CCN(c2nc(OC[C@@H]3CCCN3C)nc3c2CCN(c2cccc4cccc(Cl)c24)C3)C[C@@H]1CC#N [adagrasib] | -12.2 | 2.22
4 | C[C@]1(c2nc3c(C(N)=O)cccc3[nH]2)CCCN1 [Veliparib] + C=C(F)C(=O)N1CCN(c2nc(OC[C@@H]3CCCN3C)nc3c2CCN(c2cccc4cccc(Cl)c24)C3)C[C@@H]1CC#N [adagrasib] | -0.59 | 5.64
5 | C[C@@H]1C[C@H]2[C@@H]3CCC4=CC(=O)C=C[C@]4(C)[C@@]3(F)[C@@H](O)C[C@]2(C)[C@@]1(O)C(=O)CO [Dexamethasone] + C=C(F)C(=O)N1CCN(c2nc(OC[C@@H]3CCCN3C)nc3c2CCN(c2cccc4cccc(Cl)c24)C3)C[C@@H]1CC#N [adagrasib] | -4.66 | -0.93
6 | C[C@H](Cc1ccc(O)c(O)c1)[C@@H](C)Cc1ccc(O)c(O)c1 [Masoprocol] + C=C(F)C(=O)N1CCN(c2nc(OC[C@@H]3CCCN3C)nc3c2CCN(c2cccc4cccc(Cl)c24)C3)C[C@@H]1CC#N [adagrasib] | 1.34 | -3.46
7 | COC(=O)c1ccc2c(c1)NC(=O)/C2=C(\Nc1ccc(N(C)C(=O)CN2CCN(C)CC2)cc1)c1ccccc1 [Nintedanib] + C=C(F)C(=O)N1CCN(c2nc(OC[C@@H]3CCCN3C)nc3c2CCN(c2cccc4cccc(Cl)c24)C3)C[C@@H]1CC#N [adagrasib] | 7.6 | 4.49
8 | CNC(=O)c1cc(Oc2ccc(NC(=O)Nc3ccc(Cl)c(C(F)(F)F)c3)cc2)ccn1 [Sorafenib] + C=C(F)C(=O)N1CCN(c2nc(OC[C@@H]3CCCN3C)nc3c2CCN(c2cccc4cccc(Cl)c24)C3)C[C@@H]1CC#N [adagrasib] | -6.98 | -4.84
9 | COc1cc(OC2CCN(C)CC2)ccc1Nc1ncc2c(n1)n(C1CCCC1)c(=O)n2C [AZ3146] + C=C(F)C(=O)N1CCN(c2nc(OC[C@@H]3CCCN3C)nc3c2CCN(c2cccc4cccc(Cl)c24)C3)C[C@@H]1CC#N [adagrasib] | -1.25 | 9.79
10 | CC(C)(C)c1nc(-c2cccc(NS(=O)(=O)c3c(F)cccc3F)c2F)c(-c2ccnc(N)n2)s1 [Dabrafenib] + C=C(F)C(=O)N1CCN(c2nc(OC[C@@H]3CCCN3C)nc3c2CCN(c2cccc4cccc(Cl)c24)C3)C[C@@H]1CC#N [adagrasib] | -9.32 | -0.35
11 | CN(C)c1ccccc1CN1CCCN(Cc2ccccc2N(C)C)C1c1ccncc1 [GANT61] + C=C(F)C(=O)N1CCN(c2nc(OC[C@@H]3CCCN3C)nc3c2CCN(c2cccc4cccc(Cl)c24)C3)C[C@@H]1CC#N [adagrasib] | 7.28 | -0.37
12 | CS(=O)(=O)c1ccc(C(=O)Nc2ccc(Cl)c(-c3ccccn3)c2)c(Cl)c1 [Vismodegib] + C=C(F)C(=O)N1CCN(c2nc(OC[C@@H]3CCCN3C)nc3c2CCN(c2cccc4cccc(Cl)c24)C3)C[C@@H]1CC#N [adagrasib] | 3.61 | 15.7
13 | CN1CC[C@H](c2c(O)cc(O)c3c(=O)cc(-c4ccccc4Cl)oc23)[C@H](O)C1 [Flavopiridol] + C=C(F)C(=O)N1CCN(c2nc(OC[C@@H]3CCCN3C)nc3c2CCN(c2cccc4cccc(Cl)c24)C3)C[C@@H]1CC#N [adagrasib] | -0.29 | 2.43
14 | Cn1c(=O)n(-c2ccc(C(C)(C)C#N)cc2)c2c3cc(-c4cnc5ccccc5c4)ccc3ncc21 [NVP-BEZ235] + C=C(F)C(=O)N1CCN(c2nc(OC[C@@H]3CCCN3C)nc3c2CCN(c2cccc4cccc(Cl)c24)C3)C[C@@H]1CC#N [adagrasib] | 3.55 | 6.19
15 | CO[C@H]1C[C@@H]2CC[C@@H](C)[C@@](O)(O2)C(=O)C(=O)N2CCCC[C@H]2C(=O)O[C@H]([C@H](C)C[C@@H]2CC[C@@H](O)[C@H](OC)C2)CC(=O)[C@H](C)/C=C(\C)[C@@H](O)[C@@H](OC)C(=O)[C@H](C)C[C@H](C)/C=C/C=C/C=C/1C [Rapamycin] + C=C(F)C(=O)N1CCN(c2nc(OC[C@@H]3CCCN3C)nc3c2CCN(c2cccc4cccc(Cl)c24)C3)C[C@@H]1CC#N [adagrasib] | 4.11 | 6.52
16 | CO[C@H]1C[C@@H]2CC[C@@H](C)[C@@](O)(O2)C(=O)C(=O)N2CCCC[C@H]2C(=O)O[C@H]([C@H](C)C[C@@H]2CC[C@@H](OCCO)[C@H](OC)C2)CC(=O)[C@H](C)/C=C(\C)[C@@H](O)[C@@H](OC)C(=O)[C@H](C)C[C@H](C)/C=C/C=C/C=C/1C [Everolimus] + C=C(F)C(=O)N1CCN(c2nc(OC[C@@H]3CCCN3C)nc3c2CCN(c2cccc4cccc(Cl)c24)C3)C[C@@H]1CC#N [adagrasib] | -6.03 | 1.15
17 | Nc1ccn([C@@H]2O[C@H](CO)[C@@H](O)C2(F)F)c(=O)n1 [Gemcitabine] + C=C(F)C(=O)N1CCN(c2nc(OC[C@@H]3CCCN3C)nc3c2CCN(c2cccc4cccc(Cl)c24)C3)C[C@@H]1CC#N [adagrasib] | -4.78 | -2.8
18 | Cc1ncc([N+](=O)[O-])n1CCOC(=O)NC(Nc1ncccn1)C(Cl)(Cl)Cl (configuration not stated) [Apcin] + C=C(F)C(=O)N1CCN(c2nc(OC[C@@H]3CCCN3C)nc3c2CCN(c2cccc4cccc(Cl)c24)C3)C[C@@H]1CC#N [adagrasib] | 2.71 | -0.93
19 | COc1ccccc1-c1cc(Nc2cccc(CS(N)(=O)=O)c2)ncn1 [LDC-067] + C=C(F)C(=O)N1CCN(c2nc(OC[C@@H]3CCCN3C)nc3c2CCN(c2cccc4cccc(Cl)c24)C3)C[C@@H]1CC#N [adagrasib] | 5.11 | 3.49
20 | COc1cccc2c1C(=O)c1c(O)c3c(c(O)c1C2=O)C[C@@](O)(C(=O)CO)C[C@@H]3O[C@H]1C[C@H](N)[C@H](O)[C@H](C)O1 [Doxorubicin] + C=C(F)C(=O)N1CCN(c2nc(OC[C@@H]3CCCN3C)nc3c2CCN(c2cccc4cccc(Cl)c24)C3)C[C@@H]1CC#N [adagrasib] | -0.16 | 4.49
21 | C[C@H](CS)C(=O)N1CCC[C@H]1C(=O)O [Captopril] + C=C(F)C(=O)N1CCN(c2nc(OC[C@@H]3CCCN3C)nc3c2CCN(c2cccc4cccc(Cl)c24)C3)C[C@@H]1CC#N [adagrasib] | -0.24 | -3.8
22 | Cc1[nH]c(/C=C2\C(=O)Nc3ccc(S(=O)(=O)Cc4c(Cl)cccc4Cl)cc32)c(C)c1C(=O)N1CCC[C@@H]1CN1CCCC1 + C=C(F)C(=O)N1CCN(c2nc(OC[C@@H]3CCCN3C)nc3c2CCN(c2cccc4cccc(Cl)c24)C3)C[C@@H]1CC#N [adagrasib] | 6.94 | -0.48
23 | Cn1nnc2c(C(N)=O)ncn2c1=O [Temozolomide] + C=C(F)C(=O)N1CCN(c2nc(OC[C@@H]3CCCN3C)nc3c2CCN(c2cccc4cccc(Cl)c24)C3)C[C@@H]1CC#N [adagrasib] | 12.1 | 4.71
24 | CC(C)(C)c1cc(NC(=O)Nc2ccc(-c3cn4c(n3)sc3cc(OCCN5CCOCC5)ccc34)cc2)no1 [Quizartinib] + C=C(F)C(=O)N1CCN(c2nc(OC[C@@H]3CCCN3C)nc3c2CCN(c2cccc4cccc(Cl)c24)C3)C[C@@H]1CC#N [adagrasib] | -3.38 | 0.28
25 | CCN(CC)CCNC(=O)c1c(C)[nH]c(/C=C2\C(=O)Nc3ccc(F)cc32)c1C [Sunitinib] + C=C(F)C(=O)N1CCN(c2nc(OC[C@@H]3CCCN3C)nc3c2CCN(c2cccc4cccc(Cl)c24)C3)C[C@@H]1CC#N [adagrasib] | 1.03 | 4.56
26 | CN(C)CCCC(=O)Nc1n[nH]c2nnc(-c3ccccc3)cc12 + C=C(F)C(=O)N1CCN(c2nc(OC[C@@H]3CCCN3C)nc3c2CCN(c2cccc4cccc(Cl)c24)C3)C[C@@H]1CC#N [adagrasib] | -12.3 | -2.5
